Laboratory results from PMC10006169, “A phase I trial of LXS196, a protein kinase C (PKC) inhibitor, for metastatic uveal melanoma” (British Journal of Cancer, 2023).
Values joined by “and” are separate entries in the source; they are usually repeats but may differ in a detail not shown here. Equal values may be shown once. Marks after values point to notes of the source that are not given here.

System: patients with MUM
Experiment: Grade ≥3 serious adverse events regardless of study drug relationship
Format: in vivo, human
Description: Routine safety assessments, including laboratory assessments, physical examinations, vital signs and electrocardiograms (ECGs), were conducted at regular intervals throughout the study and more frequently as needed following patient assessment by the treating physician. Adverse events (AEs) were assessed continuously according to the National Cancer Institute Common Terminology Criteria for Adverse Events (NCI-CTCAE) v4.03.

CC1(N)CCN(c2cccnc2NC(=O)c2nc(-c3ncccc3C(F)(F)F)cnc2N)CC1 [LXS196]
0^b n (%): Diarrhoea SAE (500 mg QD) | Constipation SAE (All QD) | Diarrhoea SAE (All QD) | Constipation SAE (All patients) | Diarrhoea SAE (All patients)
6 (8.8) n (%): Hypotension SAE (All patients)
2 (5.3) n (%): Pneumonia SAE (All QD)
5 (13.2) n (%): Hypotension SAE (All QD)
5 (27.8) n (%): Patients with ≥1 SAE (300 mg BID (RDE))
14 (20.6%) n (%) and 14 (20.6) n (%): Patients with ≥1 SAE (All patients)
7 (23.3) n (%): Patients with ≥1 SAE (All BID)
1 (5.6) n (%): Acute kidney injury SAE (300 mg BID (RDE)) | Eyelid bleeding SAE (300 mg BID (RDE)) | Hepatic cytolysis SAE (300 mg BID (RDE)) | Hepatic failure SAE (300 mg BID (RDE)) | Neutrophil count decreased SAE (300 mg BID (RDE)) | Oedema peripheral SAE (300 mg BID (RDE)) | Pneumonia SAE (300 mg BID (RDE)) | Rash pruritic SAE (300 mg BID (RDE)) | Thrombocytopenia SAE (300 mg BID (RDE))
1 (3.3) n (%): Acute kidney injury SAE (All BID) | Cellulitis SAE (All BID) | Eyelid bleeding SAE (All BID) | Hepatic cytolysis SAE (All BID) | Hepatic failure SAE (All BID) | Hypotension SAE (All BID) | Neutrophil count decreased SAE (All BID) | Oedema peripheral SAE (All BID) | Pneumonia SAE (All BID) | Rash pruritic SAE (All BID) | Thrombocytopenia SAE (All BID)
2 (50.0) n (%): Patients with ≥1 SAE (1000 mg QD)
1 (2.6) n (%): Nausea SAE (All QD) | Vomiting SAE (All QD)
1 (25.0) n (%): Nausea SAE (200 mg QD) | Patients with ≥1 SAE (200 mg QD) | Pneumonia SAE (200 mg QD) | Vomiting SAE (200 mg QD) | Hypotension SAE (1000 mg QD) | Pneumonia SAE (1000 mg QD)
3 (4.4) n (%): Pneumonia SAE (All patients)
0 n (%): Acute kidney injury SAE (100 mg QD) | Cellulitis SAE (100 mg QD) | Constipation SAE (100 mg QD) | Diarrhoea SAE (100 mg QD) | Eyelid bleeding SAE (100 mg QD) | Hepatic cytolysis SAE (100 mg QD) | Hepatic failure SAE (100 mg QD) | Hypotension SAE (100 mg QD) | Nausea SAE (100 mg QD) | Neutrophil count decreased SAE (100 mg QD) | Oedema peripheral SAE (100 mg QD) | Patients with ≥1 SAE (100 mg QD) | Pneumonia SAE (100 mg QD) | Rash pruritic SAE (100 mg QD) | Thrombocytopenia SAE (100 mg QD) | Vomiting SAE (100 mg QD) | Acute kidney injury SAE (200 mg BID) | Constipation SAE (200 mg BID) | Diarrhoea SAE (200 mg BID) | Eyelid bleeding SAE (200 mg BID) | Hepatic cytolysis SAE (200 mg BID) | Hepatic failure SAE (200 mg BID) | Hypotension SAE (200 mg BID) | Nausea SAE (200 mg BID) | Neutrophil count decreased SAE (200 mg BID) | Oedema peripheral SAE (200 mg BID) | Pneumonia SAE (200 mg BID) | Rash pruritic SAE (200 mg BID) | Thrombocytopenia SAE (200 mg BID) | Vomiting SAE (200 mg BID) | Acute kidney injury SAE (200 mg QD) | Cellulitis SAE (200 mg QD) | Diarrhoea SAE (200 mg QD) | Eyelid bleeding SAE (200 mg QD) | Hepatic cytolysis SAE (200 mg QD) | Hepatic failure SAE (200 mg QD) | Hypotension SAE (200 mg QD) | Neutrophil count decreased SAE (200 mg QD) | Oedema peripheral SAE (200 mg QD) | Rash pruritic SAE (200 mg QD) | Thrombocytopenia SAE (200 mg QD) | Cellulitis SAE (300 mg BID (RDE)) | Constipation SAE (300 mg BID (RDE)) | Diarrhoea SAE (300 mg BID (RDE)) | Hypotension SAE (300 mg BID (RDE)) | Nausea SAE (300 mg BID (RDE)) | Vomiting SAE (300 mg BID (RDE)) | Acute kidney injury SAE (300 mg QD) | Cellulitis SAE (300 mg QD) | Constipation SAE (300 mg QD) | Diarrhoea SAE (300 mg QD) | Eyelid bleeding SAE (300 mg QD) | Hepatic cytolysis SAE (300 mg QD) | Hepatic failure SAE (300 mg QD) | Hypotension SAE (300 mg QD) | Nausea SAE (300 mg QD) | Neutrophil count decreased SAE (300 mg QD) | Oedema peripheral SAE (300 mg QD) | Patients with ≥1 SAE (300 mg QD) | Pneumonia SAE (300 mg QD) | Rash pruritic SAE (300 mg QD) | Thrombocytopenia SAE (300 mg QD) | Vomiting SAE (300 mg QD) | Acute kidney injury SAE (400 mg BID) | Cellulitis SAE (400 mg BID) | Constipation SAE (400 mg BID) | Diarrhoea SAE (400 mg BID) | Eyelid bleeding SAE (400 mg BID) | Hepatic cytolysis SAE (400 mg BID) | Hepatic failure SAE (400 mg BID) | Nausea SAE (400 mg BID) | Neutrophil count decreased SAE (400 mg BID) | Oedema peripheral SAE (400 mg BID) | Pneumonia SAE (400 mg BID) | Rash pruritic SAE (400 mg BID) | Thrombocytopenia SAE (400 mg BID) | Vomiting SAE (400 mg BID) | Acute kidney injury SAE (500 mg QD) | Cellulitis SAE (500 mg QD) | Constipation SAE (500 mg QD) | Eyelid bleeding SAE (500 mg QD) | Hepatic cytolysis SAE (500 mg QD) | Hepatic failure SAE (500 mg QD) | Nausea SAE (500 mg QD) | Neutrophil count decreased SAE (500 mg QD) | Oedema peripheral SAE (500 mg QD) | Pneumonia SAE (500 mg QD) | Rash pruritic SAE (500 mg QD) | Thrombocytopenia SAE (500 mg QD) | Vomiting SAE (500 mg QD) | Acute kidney injury SAE (800 mg QD) | Cellulitis SAE (800 mg QD) | Constipation SAE (800 mg QD) | Diarrhoea SAE (800 mg QD) | Eyelid bleeding SAE (800 mg QD) | Hepatic cytolysis SAE (800 mg QD) | Hepatic failure SAE (800 mg QD) | Nausea SAE (800 mg QD) | Neutrophil count decreased SAE (800 mg QD) | Oedema peripheral SAE (800 mg QD) | Pneumonia SAE (800 mg QD) | Rash pruritic SAE (800 mg QD) | Thrombocytopenia SAE (800 mg QD) | Vomiting SAE (800 mg QD) | Acute kidney injury SAE (1000 mg QD) | Cellulitis SAE (1000 mg QD) | Constipation SAE (1000 mg QD) | Diarrhoea SAE (1000 mg QD) | Eyelid bleeding SAE (1000 mg QD) | Hepatic cytolysis SAE (1000 mg QD) | Hepatic failure SAE (1000 mg QD) | Nausea SAE (1000 mg QD) | Neutrophil count decreased SAE (1000 mg QD) | Oedema peripheral SAE (1000 mg QD) | Rash pruritic SAE (1000 mg QD) | Thrombocytopenia SAE (1000 mg QD) | Vomiting SAE (1000 mg QD) | Constipation SAE (All BID) | Diarrhoea SAE (All BID) | Nausea SAE (All BID) | Vomiting SAE (All BID) | Acute kidney injury SAE (All QD) | Cellulitis SAE (All QD) | Eyelid bleeding SAE (All QD) | Hepatic cytolysis SAE (All QD) | Hepatic failure SAE (All QD) | Neutrophil count decreased SAE (All QD) | Oedema peripheral SAE (All QD) | Rash pruritic SAE (All QD) | Thrombocytopenia SAE (All QD)
1 (1.5) n (%): Acute kidney injury SAE (All patients) | Cellulitis SAE (All patients) | Eyelid bleeding SAE (All patients) | Hepatic cytolysis SAE (All patients) | Hepatic failure SAE (All patients) | Nausea SAE (All patients) | Neutrophil count decreased SAE (All patients) | Oedema peripheral SAE (All patients) | Rash pruritic SAE (All patients) | Thrombocytopenia SAE (All patients) | Vomiting SAE (All patients)
3 (27.3) n (%): Hypotension SAE (500 mg QD) | Patients with ≥1 SAE (500 mg QD)
7 (18.4) n (%): Patients with ≥1 SAE (All QD)
1 (100) n (%): Hypotension SAE (800 mg QD) | Patients with ≥1 SAE (800 mg QD)
1 (16.7) n (%): Cellulitis SAE (200 mg BID) | Patients with ≥1 SAE (200 mg BID) | Hypotension SAE (400 mg BID) | Patients with ≥1 SAE (400 mg BID)
